Results published in patent US20050143336A1 (priority 2003, published 2005).

Experiments:
[1] = test system: C3H mice; assay: Survival of mice given p38MAPK or pJNK inhibitor before FUS1-nanoparticles; format: in vivo
Protocol: The amount of FUS1 plasmid DNA delivered was 100 μg. Animals were injected intravenously with FUS1-nanoparticles and animal survival monitored for 25 days.

[2] = test system: p44/42 MAPK; conditions: MRC-9 cells, 10, 30 μM prior to FUS1-nanoparticles
Protocol: In vitro experiments. To determine the effect of FUS1-nanoparticles on the activation of signaling molecules associated with inflammation, MRC-9 fibroblast cells were seeded in six-well plates (5×10^5 cells/well) and incubated overnight at 37° C. and 5% CO2. […] Two-three hours after treatment, cells were transfected with FUS1-nanoparticles (2.5 μg DNA) in 0.2% serum medium. Cells were harvested at different time-points (2 h, 4 h, 15 h) after transfection, washed, and cell lysates prepared as previously described (Ramesh et al., 2001a). Untransfected cells treated with PBS served as control in these experiments. Cell lysates were subjected to western blotting analysis and probed with various antibodies as previously described (Ramesh et al., 2001b; Ito et al., 2003). In all the experiments, β-actin was detected using anti-β-actin antibody (Sigma Chemicals, St. Louis, Mo.) as a measure of internal loading control.

[3] = inhibitor 15 mg/kg intraperitoneally 24 h and 3 h prior to FUS1-nanoparticles (100 μg DNA) i.v., monitored 25 days

| SMILES | survival [1, 3] | survival ([1]; two i.p. doses at 24 h and 3 h before complex) | p44/42 MAPK expression and downstream substrates [2] |
| --- | --- | --- | --- |
| C[S+]([O-])c1ccc(-c2nc(-c3ccncc3)c(-c3ccc(F)cc3)[nH]2)cc1 (stereo not shown) [SB 203580] | 100% | Prolonged survival | – |
| N#CC(=C(/N)Sc1ccccc1N)/C(C#N)=C(\N)Sc1ccccc1N [U0126] | – | – | significant inhibition |
| O=C1c2ccccc2-c2n[nH]c3cccc1c23 [pJNK inhibitor] | 33% | – | – |
